Compound in this assay: Nc1nc2c(ncn2[C@@H]2O[C@H](COP(=O)(O)OP(=O)(O)OP(=O)(O)O)[C@@H](O)[C@H]2O)c(=O)[nH]1 [guanosine triphosphate]
Kind of assay: pEC50 of GTP-induced change in protein thermal stability (2D-TPP). Here is the method: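 2D thermal proteome profiling in Jurkat crude lysate. Lysate was treated 10 min at room temperature with Na-GTP (0, 0.001, 0.01, 0.1, 0.5 mM), heated to 12 temperatures (42-63.9 °C) for 3 min, and soluble protein was quantified by TMT10 LC-MS/MS. pEC50 is the median over replicates of dose-response fits (FDR-controlled hits).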
UniProt P60953, sequence (P60953 whole entry, looked up): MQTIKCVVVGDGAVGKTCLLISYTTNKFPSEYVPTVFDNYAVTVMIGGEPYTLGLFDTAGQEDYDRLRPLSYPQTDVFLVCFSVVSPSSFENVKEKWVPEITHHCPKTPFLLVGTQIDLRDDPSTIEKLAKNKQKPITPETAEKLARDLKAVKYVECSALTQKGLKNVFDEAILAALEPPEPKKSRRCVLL
UniProt Q9H0U4, sequence (Q9H0U4 whole entry): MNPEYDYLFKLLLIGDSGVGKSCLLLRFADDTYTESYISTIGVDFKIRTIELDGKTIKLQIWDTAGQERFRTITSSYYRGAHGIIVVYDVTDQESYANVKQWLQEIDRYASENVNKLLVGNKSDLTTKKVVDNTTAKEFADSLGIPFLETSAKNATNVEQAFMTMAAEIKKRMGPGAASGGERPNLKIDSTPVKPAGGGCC
UniProt Q9H082, sequence (Q9H082 whole entry): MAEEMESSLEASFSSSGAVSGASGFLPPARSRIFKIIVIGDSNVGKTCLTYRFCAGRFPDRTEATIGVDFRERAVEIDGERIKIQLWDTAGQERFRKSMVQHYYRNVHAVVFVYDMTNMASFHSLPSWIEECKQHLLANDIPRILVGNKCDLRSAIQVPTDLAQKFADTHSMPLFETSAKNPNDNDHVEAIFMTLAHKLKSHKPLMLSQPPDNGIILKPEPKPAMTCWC
UniProt P35249, sequence (P35249 whole entry): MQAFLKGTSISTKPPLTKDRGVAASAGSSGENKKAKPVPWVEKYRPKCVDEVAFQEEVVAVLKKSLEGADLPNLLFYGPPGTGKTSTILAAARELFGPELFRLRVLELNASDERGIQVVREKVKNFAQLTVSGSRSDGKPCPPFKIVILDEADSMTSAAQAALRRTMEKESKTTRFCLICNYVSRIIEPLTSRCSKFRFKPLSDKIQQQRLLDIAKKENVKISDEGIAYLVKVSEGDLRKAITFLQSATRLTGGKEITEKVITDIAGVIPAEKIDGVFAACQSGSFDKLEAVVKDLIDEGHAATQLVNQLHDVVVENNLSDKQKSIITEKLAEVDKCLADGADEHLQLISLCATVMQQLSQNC
UniProt Q9NP72, sequence (Q9NP72 whole entry): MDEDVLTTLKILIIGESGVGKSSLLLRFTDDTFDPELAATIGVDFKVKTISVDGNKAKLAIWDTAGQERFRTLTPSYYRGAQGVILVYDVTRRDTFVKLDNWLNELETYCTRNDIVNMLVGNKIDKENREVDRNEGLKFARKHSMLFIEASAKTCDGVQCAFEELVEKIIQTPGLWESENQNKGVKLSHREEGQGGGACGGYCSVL
UniProt P08134, sequence (P08134 whole entry): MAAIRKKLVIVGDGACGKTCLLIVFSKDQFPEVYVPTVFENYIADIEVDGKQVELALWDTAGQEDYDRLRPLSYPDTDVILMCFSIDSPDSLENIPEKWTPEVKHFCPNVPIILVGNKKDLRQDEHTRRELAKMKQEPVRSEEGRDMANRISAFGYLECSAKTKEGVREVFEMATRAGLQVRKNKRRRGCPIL
UniProt Q9Y6B6, sequence (Q9Y6B6 whole entry): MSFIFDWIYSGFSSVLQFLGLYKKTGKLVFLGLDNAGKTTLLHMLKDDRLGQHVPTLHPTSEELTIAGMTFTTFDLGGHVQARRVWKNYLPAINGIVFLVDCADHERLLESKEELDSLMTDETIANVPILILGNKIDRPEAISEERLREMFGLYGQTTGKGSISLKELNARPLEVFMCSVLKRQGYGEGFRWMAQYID
UniProt Q8IYD1, sequence (Q8IYD1 whole entry): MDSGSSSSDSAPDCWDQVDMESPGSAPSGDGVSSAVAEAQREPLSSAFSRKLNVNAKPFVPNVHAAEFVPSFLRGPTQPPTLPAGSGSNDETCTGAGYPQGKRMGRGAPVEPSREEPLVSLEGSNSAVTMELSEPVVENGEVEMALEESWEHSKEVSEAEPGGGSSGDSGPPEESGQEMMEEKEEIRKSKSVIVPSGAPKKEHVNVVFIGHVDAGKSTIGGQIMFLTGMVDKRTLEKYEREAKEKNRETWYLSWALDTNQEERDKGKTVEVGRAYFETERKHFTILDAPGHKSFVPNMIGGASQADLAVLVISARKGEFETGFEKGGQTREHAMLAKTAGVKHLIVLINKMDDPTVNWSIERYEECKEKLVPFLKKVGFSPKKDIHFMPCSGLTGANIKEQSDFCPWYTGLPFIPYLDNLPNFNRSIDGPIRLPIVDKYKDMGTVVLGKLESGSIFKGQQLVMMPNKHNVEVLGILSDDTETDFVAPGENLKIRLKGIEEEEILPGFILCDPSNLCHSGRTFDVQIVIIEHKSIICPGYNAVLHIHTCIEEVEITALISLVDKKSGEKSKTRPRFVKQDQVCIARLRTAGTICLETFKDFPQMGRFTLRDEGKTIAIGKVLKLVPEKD
UniProt P50395, sequence (P50395 whole entry): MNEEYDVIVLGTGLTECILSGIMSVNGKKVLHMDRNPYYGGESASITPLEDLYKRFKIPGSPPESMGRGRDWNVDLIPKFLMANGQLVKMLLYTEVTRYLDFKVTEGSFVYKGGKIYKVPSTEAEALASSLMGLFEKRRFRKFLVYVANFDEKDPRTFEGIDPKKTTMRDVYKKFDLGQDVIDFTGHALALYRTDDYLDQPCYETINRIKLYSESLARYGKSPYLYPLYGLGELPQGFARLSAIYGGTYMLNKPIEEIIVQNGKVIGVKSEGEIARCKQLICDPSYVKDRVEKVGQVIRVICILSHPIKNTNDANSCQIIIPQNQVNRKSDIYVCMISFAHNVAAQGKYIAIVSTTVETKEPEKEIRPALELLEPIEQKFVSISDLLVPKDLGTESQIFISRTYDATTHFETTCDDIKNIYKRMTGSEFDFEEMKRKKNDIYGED
UniProt Q96AX2, sequence (Q96AX2 whole entry): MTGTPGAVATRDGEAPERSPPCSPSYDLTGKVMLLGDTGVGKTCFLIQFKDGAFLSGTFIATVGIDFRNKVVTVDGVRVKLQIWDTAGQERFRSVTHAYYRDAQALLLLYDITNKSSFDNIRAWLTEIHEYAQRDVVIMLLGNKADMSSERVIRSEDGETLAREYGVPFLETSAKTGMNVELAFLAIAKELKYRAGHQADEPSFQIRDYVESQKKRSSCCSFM
UniProt P22695, sequence (P22695 whole entry): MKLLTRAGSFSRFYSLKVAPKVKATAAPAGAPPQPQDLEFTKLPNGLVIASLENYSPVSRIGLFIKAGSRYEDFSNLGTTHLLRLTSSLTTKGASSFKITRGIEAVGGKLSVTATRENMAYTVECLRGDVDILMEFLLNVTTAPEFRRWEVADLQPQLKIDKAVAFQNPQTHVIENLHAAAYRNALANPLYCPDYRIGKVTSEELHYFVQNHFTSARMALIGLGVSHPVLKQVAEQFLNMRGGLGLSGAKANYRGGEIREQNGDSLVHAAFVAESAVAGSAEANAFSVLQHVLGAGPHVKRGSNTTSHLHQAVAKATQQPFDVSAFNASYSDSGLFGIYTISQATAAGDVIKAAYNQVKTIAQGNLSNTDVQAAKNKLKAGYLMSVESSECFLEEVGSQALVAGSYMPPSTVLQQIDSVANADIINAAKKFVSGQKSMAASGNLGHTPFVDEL
UniProt Q9HBU6, sequence (Q9HBU6 whole entry): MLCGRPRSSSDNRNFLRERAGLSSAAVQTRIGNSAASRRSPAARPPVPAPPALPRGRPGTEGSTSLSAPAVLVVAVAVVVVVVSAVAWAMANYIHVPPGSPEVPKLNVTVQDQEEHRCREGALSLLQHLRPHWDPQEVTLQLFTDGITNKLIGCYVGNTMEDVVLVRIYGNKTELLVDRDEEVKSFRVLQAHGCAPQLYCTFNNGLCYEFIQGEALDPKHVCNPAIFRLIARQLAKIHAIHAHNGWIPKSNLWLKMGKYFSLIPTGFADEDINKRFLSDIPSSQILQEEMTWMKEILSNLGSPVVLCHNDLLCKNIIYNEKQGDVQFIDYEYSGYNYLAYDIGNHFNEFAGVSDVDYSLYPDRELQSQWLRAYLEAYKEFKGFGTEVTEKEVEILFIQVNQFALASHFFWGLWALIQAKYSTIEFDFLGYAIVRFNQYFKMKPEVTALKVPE
UniProt Q9NYR9, sequence (Q9NYR9 whole entry): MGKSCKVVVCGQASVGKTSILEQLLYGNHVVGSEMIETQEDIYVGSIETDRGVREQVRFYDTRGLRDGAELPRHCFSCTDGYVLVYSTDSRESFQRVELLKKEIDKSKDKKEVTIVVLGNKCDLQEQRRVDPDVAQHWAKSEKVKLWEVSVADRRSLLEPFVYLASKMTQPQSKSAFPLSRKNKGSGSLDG
UniProt Q7L4I2, sequence (Q7L4I2 whole entry): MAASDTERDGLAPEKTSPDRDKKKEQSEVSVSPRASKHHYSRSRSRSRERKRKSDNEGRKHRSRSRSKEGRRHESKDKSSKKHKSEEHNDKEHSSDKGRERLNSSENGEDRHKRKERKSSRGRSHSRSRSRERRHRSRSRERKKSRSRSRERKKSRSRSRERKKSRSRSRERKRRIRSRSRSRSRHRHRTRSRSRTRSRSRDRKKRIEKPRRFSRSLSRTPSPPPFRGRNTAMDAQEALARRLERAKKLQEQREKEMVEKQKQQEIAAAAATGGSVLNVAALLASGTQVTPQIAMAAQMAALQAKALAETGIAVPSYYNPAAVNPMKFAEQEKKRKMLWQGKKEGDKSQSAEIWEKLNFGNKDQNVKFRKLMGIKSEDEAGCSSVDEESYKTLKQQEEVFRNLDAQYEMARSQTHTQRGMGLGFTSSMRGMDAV
UniProt O95716, sequence (O95716 whole entry): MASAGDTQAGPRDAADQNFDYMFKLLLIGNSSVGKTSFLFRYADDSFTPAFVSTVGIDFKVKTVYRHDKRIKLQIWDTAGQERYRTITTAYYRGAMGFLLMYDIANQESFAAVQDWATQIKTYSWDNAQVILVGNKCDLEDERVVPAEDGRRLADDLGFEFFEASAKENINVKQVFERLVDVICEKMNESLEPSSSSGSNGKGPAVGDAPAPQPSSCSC
UniProt P10114, sequence (P10114 whole entry): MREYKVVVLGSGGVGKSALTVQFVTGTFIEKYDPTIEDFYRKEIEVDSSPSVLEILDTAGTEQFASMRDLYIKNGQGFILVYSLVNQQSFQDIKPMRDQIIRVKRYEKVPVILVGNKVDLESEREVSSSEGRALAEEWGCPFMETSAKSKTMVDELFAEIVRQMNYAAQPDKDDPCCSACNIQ
For “DNM1 (effect direction: stabilized) (UniProt Q05193)”, the pEC50 was found to be 3.62. “DNM2 (effect direction: stabilized) (UniProt P50570)”: the negative-log EC50 (pEC50) was determined as 3.78. For “DOCK2 (effect direction: stabilized) (UniProt Q92608)” the value was 3.81. For “DRG1 (effect direction: stabilized) (UniProt Q9Y295)” the value was 4.7; for “EEFSEC (effect direction: stabilized) (UniProt P57772)”, 3.92. For “EIF5B (effect direction: stabilized) (UniProt O60841)” the value was 3.81; for “ETNK1 (effect direction: stabilized) (UniProt Q9HBU6)”, 4.21; for “FPGT (effect direction: stabilized) (UniProt O14772)”, 3.91.

As to “GBP1 (effect direction: stabilized) (UniProt P32455)”, the pEC50 is 3.82.

Regarding “GDI2 (effect direction: stabilized) (UniProt P50395)”, the pEC50 is 3.74. For “GFM1 (effect direction: stabilized) (UniProt Q96RP9)” the value was 4.04.

Consider “GIMAP4 (effect direction: stabilized) (UniProt Q9NUV9)”, for which the pEC50 came to 3.72. The figure for “GNAO1 (effect direction: stabilized) (UniProt P09471)” is 4.24. Turning to “GNAQ (effect direction: stabilized) (UniProt P50148)”, the pEC50 is 3.6. Consider “GNL2 (effect direction: stabilized) (UniProt Q13823)”, for which the pEC50 was found to be 4.2. Take “GPN1 (effect direction: stabilized) (UniProt Q9HCN4)”: the pEC50 was determined as 4.95.

Take “GSPT2 (effect direction: stabilized) (UniProt Q8IYD1)”: the pEC50 came out at 4.27. For “H2AFX (effect direction: stabilized) (UniProt P16104)” the value was 3.49; for “H2AFY (effect direction: stabilized) (UniProt O75367)”, 3.67; for “HBS1L (effect direction: stabilized) (UniProt Q9Y450)”, 4.21.

As for “HSPD1 (effect direction: destabilized) (UniProt P10809)”, the pEC50 came to 4.2.

Turning to “KRAS (effect direction: stabilized) (UniProt P01116)”, the pEC50 was determined as 4.32.

As for “LSG1 (effect direction: stabilized) (UniProt Q9H089)”, the pEC50 was 3.88. On to “MFN1 (effect direction: stabilized) (UniProt Q8IWA4)”, for which the pEC50 was 3.96. In the case of “MMAA (effect direction: stabilized) (UniProt Q8IVH4)”, the pEC50 came out at 4.08.

Turning to “NKIRAS2 (effect direction: stabilized) (UniProt Q9NYR9)”, the pEC50 came out at 4.17. Take “NRAS (effect direction: stabilized) (UniProt P01111)”: the pEC50 is 4.01. Regarding “NUBPL (effect direction: stabilized) (UniProt Q8TB37)”, the pEC50 is 3.93. As for “OPA1 (effect direction: stabilized) (UniProt O60313)”, the pEC50 worked out at 3.71.

Turning to “PANK3 (effect direction: stabilized) (UniProt Q9H999)”, the pEC50 is 3.41. Take “PANK4 (effect direction: stabilized) (UniProt Q9NVE7)”: the pEC50 amounted to 3.55.

Take “PCK2 (effect direction: stabilized) (UniProt Q16822)”: the pEC50 was 3.79. Consider “POFUT1 (effect direction: stabilized) (UniProt Q9H488)”, for which the pEC50 is 3.78. For “RAB1B (effect direction: stabilized) (UniProt Q9H0U4)” the value was 3.88. The figure for “RAB3A (effect direction: stabilized) (UniProt P20336)” is 4; for “RAB3D (effect direction: stabilized) (UniProt O95716)” it is 3.85.

For “RAB5A (effect direction: stabilized) (UniProt P20339)”, the pEC50 came out at 3.97.

In the case of “RAB11B (effect direction: stabilized) (UniProt Q15907)”, the pEC50 turned out to be 4.23. For “RAB12 (effect direction: stabilized) (UniProt Q6IQ22)” the value was 3.93. For the target “RAB18 (effect direction: stabilized) (UniProt Q9NP72)”, the pEC50 is 3.65.

“RAB23 (effect direction: stabilized) (UniProt Q9ULC3)”: the pEC50 was 4.02.

In the case of “RAB27A (effect direction: stabilized) (UniProt P51159)”, the pEC50 is 3.92.

As to “RAB33B (effect direction: stabilized) (UniProt Q9H082)”, the pEC50 was determined as 4.12.

For the target “RAB37 (effect direction: stabilized) (UniProt Q96AX2)”, the pEC50 came to 3.8.

Turning to “RAC2 (effect direction: stabilized) (UniProt P15153)”, the pEC50 amounted to 3.98.

With “RALA (effect direction: stabilized) (UniProt P11233)”, the pEC50 was found to be 4.33. Regarding “RALB (effect direction: stabilized) (UniProt P11234)”, the pEC50 worked out at 4.14. In the case of “RAP2A (effect direction: stabilized) (UniProt P10114)”, the pEC50 amounted to 4.47. Take “RECQL (effect direction: destabilized) (UniProt P46063)”: the pEC50 is 3.84. Regarding “RFC3 (effect direction: stabilized) (UniProt P40938)”, the pEC50 was 3.85.

Regarding “RFC4 (effect direction: stabilized) (UniProt P35249)”, the pEC50 is 3.91.

Consider “RFC5 (effect direction: stabilized) (UniProt P40937)”, for which the pEC50 was 3.8. For “RNGTT (effect direction: stabilized) (UniProt O60942)” the value was 4.39; for “RRAS (effect direction: stabilized) (UniProt P10301)”, 3.84; for “RSRC2 (effect direction: stabilized) (UniProt Q7L4I2)”, 3.79. The figure for “SACS (effect direction: stabilized) (UniProt Q9NZJ4)” is 3.82. Take “SAFB2 (effect direction: destabilized) (UniProt Q14151)”: the pEC50 came out at 3.34. The figure for “SAFB (effect direction: destabilized) (UniProt Q15424)” is 4.81; for “SAR1A (effect direction: stabilized) (UniProt Q9NR31)” it is 3.87; for “SAR1B (effect direction: stabilized) (UniProt Q9Y6B6)” it is 4.16. For “SRP54 (effect direction: stabilized) (UniProt P61011)” the value was 3.98; for “SRP68 (effect direction: stabilized) (UniProt Q9UHB9)”, 4.12. The figure for “SRP72 (effect direction: stabilized) (UniProt O76094)” is 4.01; for “TAP1 (effect direction: stabilized) (UniProt Q03518)” it is 3.74. As for “TUBA1A (effect direction: stabilized) (UniProt Q71U36)”, the pEC50 is 3.4. “TUBE1 (effect direction: stabilized) (UniProt Q9UJT0)”: the pEC50 worked out at 4.31. The figure for “TUFM (effect direction: stabilized) (UniProt P49411)” is 4.41. The figure for “UCK1 (effect direction: stabilized) (UniProt Q9HA47)” is under 3.3; for “UQCRC2 (effect direction: stabilized) (UniProt P22695)” it is 4.3; for “UniProt A3KMH1 (effect direction: stabilized)” it is 3.98. The figure for “UniProt O00506 (effect direction: stabilized)” is 3.86; for “UniProt O14966 (effect direction: stabilized)” it is 4.27. Consider “UniProt O75582 (effect direction: stabilized)”, for which the pEC50 turned out to be 4.16. The figure for “UniProt O95747 (effect direction: stabilized)” is 3.79; for “UniProt P08134 (effect direction: stabilized)” it is 4.43. On to “UniProt P48730 (effect direction: stabilized)”, for which the pEC50 was 3.86. Turning to “UniProt P51149 (effect direction: stabilized)”, the pEC50 stood at 3.9.

In the case of “UniProt P60953 (effect direction: stabilized)”, the negative-log EC50 (pEC50) is 3.59. Consider “UniProt P61020 (effect direction: stabilized)”, for which the pEC50 turned out to be 4.67.

For the target “UniProt P61221 (effect direction: stabilized)”, the pEC50 came out at 4.18. Consider “UniProt P62330 (effect direction: stabilized)”, for which the pEC50 was found to be 3.98. With “UniProt P62805 (effect direction: stabilized)”, the pEC50 stood at 3.69. For the target “UniProt P62834 (effect direction: stabilized)”, the negative logarithm of the EC50 (pEC50) turned out to be 4.38.

Broadly, the pEC50 is the EC50 on a negative log10 scale, so that one unit is a factor of ten.

For the origin of these results see the supplement of paper PMC6411743.
